{"source": "patent US5164388A", "about": "“Heterocyclic peptide renin inhibitors” (Abbott Laboratories, priority 1991, dated 1992)", "key": {"[1]": {"tested_on": "Plasma Renin Activity", "assay": "Plasma renin activity in salt depleted monkeys following oral dosing", "assay_type": "in vivo, cynomolgous monkeys", "conditions": "oral 3 mg/kg", "experimental": "(§1) The ability of the compounds of the invention to decrease blood pressure and plasma renin activity in vivo can be determined using the following method.\n(§2) Male cynomolgous monkeys housed under constant temperature and lighting conditions and weighing 3-5 kg were instrumented with chronic indwelling arterial and venous catheters. Following pretreatment by salt-depletion, the monkeys were dosed by nasogastric tube with 3 mg/kg of the compound of Example 152."}, "[2]": {"biological_target": "T1, human renal renin (Homo sapiens, UniProt P00797)", "T1 construct": "human renal renin, free from acid proteolytic activity; from tissue", "T1 sequence (P00797 67-406)": "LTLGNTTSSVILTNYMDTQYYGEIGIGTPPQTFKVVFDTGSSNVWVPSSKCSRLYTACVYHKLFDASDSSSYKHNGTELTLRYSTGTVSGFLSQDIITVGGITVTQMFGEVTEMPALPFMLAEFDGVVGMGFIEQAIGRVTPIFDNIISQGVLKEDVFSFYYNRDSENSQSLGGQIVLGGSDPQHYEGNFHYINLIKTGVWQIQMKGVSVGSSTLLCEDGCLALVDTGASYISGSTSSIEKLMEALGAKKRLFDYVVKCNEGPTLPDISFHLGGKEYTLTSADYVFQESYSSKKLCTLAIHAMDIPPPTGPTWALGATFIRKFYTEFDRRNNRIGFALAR", "assay": "Inhibition of human renal renin in vitro (angiotensin I formed, radioimmunoassay)", "assay_type": "biochemical", "conditions": "human angiotensinogen substrate, 37 degrees C., pH 6.0", "experimental": "The novel compounds of the present invention are also useful for treating congestive heart failure. […] At the end of the incubation, the amount of angiotensin I formed is measured by radioimmunoassay and the molar concentration required to cause 50% inhibition, expressed as the IC50, is calculated."}, "[3]": {"assay": "Blood pressure in salt depleted monkeys following oral dosing", "assay_type": "in vivo, cynomolgous monkeys", "conditions": "oral 3 mg/kg", "experimental": "as §1, §2"}, "[4]": {"conditions": "Mean of three monkeys, time 0 min"}, "[5]": {"conditions": "Mean of three monkeys, time 5 min"}, "[6]": {"conditions": "Mean of three monkeys, time 15 min"}, "[7]": {"conditions": "Mean of three monkeys, time 30 min"}, "[8]": {"conditions": "Mean of three monkeys, time 60 min"}, "[9]": {"conditions": "Mean of three monkeys, time 90 min"}, "[10]": {"conditions": "Mean of three monkeys, time 120 min"}, "[11]": {"conditions": "Mean of three monkeys, time 180 min"}, "[12]": {"conditions": "Mean of three monkeys, time 360 min"}}}
{"smiles": "CC1COC(C(O)C(CC2CCCCC2)NC(=O)C(Cc2cscn2)N2CCCC(Cc3ccccc3)(NS(=O)(=O)N3CCN(C)CC3)C2=O)C1", "note": "[Example 152, (2S1-((3S)-((N-methylpiperazinsulfonyl)amino-3-phenylmethyl-2-oxo-1-piperidinyl)-3-(4-thiazolyl)propionic acid amide of (2S,4S,1'R,2'S)-2-(2'-amino-3'-cyclohexyl-1'-hydroxypropyl)-4-methyltetrahydrofuran]", "values": [{"measurement": "Plasma Renin Activity (PRA)", "setting": "[1]; [4]", "value": 21.7, "unit": "ng/mL/h"}, {"measurement": "Plasma Renin Activity (PRA)", "setting": "[1]; [5]", "value": 0.8, "unit": "ng/mL/h"}, {"measurement": "Plasma Renin Activity (PRA)", "setting": "[1]; [6]", "value": 0.2, "unit": "ng/mL/h"}, {"measurement": "Plasma Renin Activity (PRA)", "setting": "[1]; [7]", "value": 0.0, "unit": "ng/mL/h"}, {"measurement": "Plasma Renin Activity (PRA)", "setting": "[1]; [8]", "value": 0.0, "unit": "ng/mL/h"}, {"measurement": "Plasma Renin Activity (PRA)", "setting": "[1]; [9]", "value": 0.0, "unit": "ng/mL/h"}, {"measurement": "Plasma Renin Activity (PRA)", "setting": "[1]; [10]", "value": 0.1, "unit": "ng/mL/h"}, {"measurement": "Plasma Renin Activity (PRA)", "setting": "[1]; [11]", "value": 0.1, "unit": "ng/mL/h"}, {"measurement": "Plasma Renin Activity (PRA)", "setting": "[1]; [12]", "value": 0.5, "unit": "ng/mL/h"}, {"measurement": "Plasma Renin Activity (PRA)", "setting": "[1]; Monkey 1, time 0 min", "value": 12.6, "unit": "ng/mL/h"}, {"measurement": "Plasma Renin Activity (PRA)", "setting": "[1]; Monkey 1, time 5 min", "value": 2.2, "unit": "ng/mL/h"}, {"measurement": "Plasma Renin Activity (PRA)", "setting": "[1]; Monkey 1, time 15 min", "value": 0.44, "unit": "ng/mL/h"}, {"measurement": "Plasma Renin Activity (PRA)", "setting": "[1]; Monkey 1, time 30 min", "value": 0.0, "unit": "ng/mL/h"}, {"measurement": "Plasma Renin Activity (PRA)", "setting": "[1]; Monkey 1, time 60 min", "value": 0.0, "unit": "ng/mL/h"}, {"measurement": "Plasma Renin Activity (PRA)", "setting": "[1]; Monkey 1, time 90 min", "value": 0.1, "unit": "ng/mL/h"}, {"measurement": "Plasma Renin Activity (PRA)", "setting": "[1]; Monkey 1, time 120 min", "value": 0.0, "unit": "ng/mL/h"}, {"measurement": "Plasma Renin Activity (PRA)", "setting": "[1]; Monkey 1, time 180 min", "value": 0.1, "unit": "ng/mL/h"}, {"measurement": "Plasma Renin Activity (PRA)", "setting": "[1]; Monkey 1, time 360 min", "value": 0.2, "unit": "ng/mL/h"}, {"measurement": "Plasma Renin Activity (PRA)", "setting": "[1]; Monkey 2, time 0 min", "value": 34.2, "unit": "ng/mL/h"}, {"measurement": "Plasma Renin Activity (PRA)", "setting": "[1]; Monkey 2, time 5 min", "value": 0.1, "unit": "ng/mL/h"}, {"measurement": "Plasma Renin Activity (PRA)", "setting": "[1]; Monkey 2, time 15 min", "value": 0.0, "unit": "ng/mL/h"}, {"measurement": "Plasma Renin Activity (PRA)", "setting": "[1]; Monkey 2, time 30 min", "value": 0.0, "unit": "ng/mL/h"}, {"measurement": "Plasma Renin Activity (PRA)", "setting": "[1]; Monkey 2, time 60 min", "value": 0.0, "unit": "ng/mL/h"}, {"measurement": "Plasma Renin Activity (PRA)", "setting": "[1]; Monkey 2, time 90 min", "value": 0.0, "unit": "ng/mL/h"}, {"measurement": "Plasma Renin Activity (PRA)", "setting": "[1]; Monkey 2, time 120 min", "value": 0.3, "unit": "ng/mL/h"}, {"measurement": "Plasma Renin Activity (PRA)", "setting": "[1]; Monkey 2, time 180 min", "value": 0.2, "unit": "ng/mL/h"}, {"measurement": "Plasma Renin Activity (PRA)", "setting": "[1]; Monkey 2, time 360 min", "value": 0.7, "unit": "ng/mL/h"}, {"measurement": "Plasma Renin Activity (PRA)", "setting": "[1]; Monkey 3, time 0 min", "value": 18.4, "unit": "ng/mL/h"}, {"measurement": "Plasma Renin Activity (PRA)", "setting": "[1]; Monkey 3, time 5 min", "value": 0.1, "unit": "ng/mL/h"}, {"measurement": "Plasma Renin Activity (PRA)", "setting": "[1]; Monkey 3, time 15 min", "value": 0.2, "unit": "ng/mL/h"}, {"measurement": "Plasma Renin Activity (PRA)", "setting": "[1]; Monkey 3, time 30 min", "value": 0.0, "unit": "ng/mL/h"}, {"measurement": "Plasma Renin Activity (PRA)", "setting": "[1]; Monkey 3, time 60 min", "value": 0.1, "unit": "ng/mL/h"}, {"measurement": "Plasma Renin Activity (PRA)", "setting": "[1]; Monkey 3, time 90 min", "value": 0.0, "unit": "ng/mL/h"}, {"measurement": "Plasma Renin Activity (PRA)", "setting": "[1]; Monkey 3, time 120 min", "value": 0.0, "unit": "ng/mL/h"}, {"measurement": "Plasma Renin Activity (PRA)", "setting": "[1]; Monkey 3, time 180 min", "value": 0.1, "unit": "ng/mL/h"}, {"measurement": "Plasma Renin Activity (PRA)", "setting": "[1]; Monkey 3, time 360 min", "value": 0.7, "unit": "ng/mL/h"}, {"measurement": "IC50", "setting": "[2]", "value": 0.55, "unit": "nM"}, {"measurement": "Blood Pressure (BP)", "setting": "[3]; [4]", "value": 86, "unit": "mmHg"}, {"measurement": "Blood Pressure (BP)", "setting": "[3]; [5]", "value": 85, "unit": "mmHg"}, {"measurement": "Blood Pressure (BP)", "setting": "[3]; [6]", "value": 79, "unit": "mmHg"}, {"measurement": "Blood Pressure (BP)", "setting": "[3]; [7]", "value": 74, "unit": "mmHg"}, {"measurement": "Blood Pressure (BP)", "setting": "[3]; [8]", "value": 73, "unit": "mmHg"}, {"measurement": "Blood Pressure (BP)", "setting": "[3]; [9]", "value": 76, "unit": "mmHg"}, {"measurement": "Blood Pressure (BP)", "setting": "[3]; [10]", "value": 77, "unit": "mmHg"}, {"measurement": "Blood Pressure (BP)", "setting": "[3]; [11]", "value": 79, "unit": "mmHg"}, {"measurement": "Blood Pressure (BP)", "setting": "[3]; [12]", "value": 83, "unit": "mmHg"}, {"measurement": "Blood Pressure (BP)", "setting": "[3]; Monkey 1, time 0 min", "value": 75, "unit": "mmHg"}, {"measurement": "Blood Pressure (BP)", "setting": "[3]; Monkey 1, time 5 min", "value": 75, "unit": "mmHg"}, {"measurement": "Blood Pressure (BP)", "setting": "[3]; Monkey 1, time 15 min", "value": 75, "unit": "mmHg"}, {"measurement": "Blood Pressure (BP)", "setting": "[3]; Monkey 1, time 30 min", "value": 71, "unit": "mmHg"}, {"measurement": "Blood Pressure (BP)", "setting": "[3]; Monkey 1, time 60 min", "value": 70, "unit": "mmHg"}, {"measurement": "Blood Pressure (BP)", "setting": "[3]; Monkey 1, time 90 min", "value": 74, "unit": "mmHg"}, {"measurement": "Blood Pressure (BP)", "setting": "[3]; Monkey 1, time 120 min", "value": 68, "unit": "mmHg"}, {"measurement": "Blood Pressure (BP)", "setting": "[3]; Monkey 1, time 180 min", "value": 72, "unit": "mmHg"}, {"measurement": "Blood Pressure (BP)", "setting": "[3]; Monkey 1, time 360 min", "value": 72, "unit": "mmHg"}, {"measurement": "Blood Pressure (BP)", "setting": "[3]; Monkey 2, time 0 min", "value": 105, "unit": "mmHg"}, {"measurement": "Blood Pressure (BP)", "setting": "[3]; Monkey 2, time 5 min", "value": 99, "unit": "mmHg"}, {"measurement": "Blood Pressure (BP)", "setting": "[3]; Monkey 2, time 15 min", "value": 92, "unit": "mmHg"}, {"measurement": "Blood Pressure (BP)", "setting": "[3]; Monkey 2, time 30 min", "value": 82, "unit": "mmHg"}, {"measurement": "Blood Pressure (BP)", "setting": "[3]; Monkey 2, time 60 min", "value": 85, "unit": "mmHg"}, {"measurement": "Blood Pressure (BP)", "setting": "[3]; Monkey 2, time 90 min", "value": 85, "unit": "mmHg"}, {"measurement": "Blood Pressure (BP)", "setting": "[3]; Monkey 2, time 120 min", "value": 80, "unit": "mmHg"}, {"measurement": "Blood Pressure (BP)", "setting": "[3]; Monkey 2, time 180 min", "value": 92, "unit": "mmHg"}, {"measurement": "Blood Pressure (BP)", "setting": "[3]; Monkey 2, time 360 min", "value": 93, "unit": "mmHg"}, {"measurement": "Blood Pressure (BP)", "setting": "[3]; Monkey 3, time 0 min", "value": 77, "unit": "mmHg"}, {"measurement": "Blood Pressure (BP)", "setting": "[3]; Monkey 3, time 5 min", "value": 82, "unit": "mmHg"}, {"measurement": "Blood Pressure (BP)", "setting": "[3]; Monkey 3, time 15 min", "value": 69, "unit": "mmHg"}, {"measurement": "Blood Pressure (BP)", "setting": "[3]; Monkey 3, time 30 min", "value": 69, "unit": "mmHg"}, {"measurement": "Blood Pressure (BP)", "setting": "[3]; Monkey 3, time 60 min", "value": 65, "unit": "mmHg"}, {"measurement": "Blood Pressure (BP)", "setting": "[3]; Monkey 3, time 90 min", "value": 70, "unit": "mmHg"}, {"measurement": "Blood Pressure (BP)", "setting": "[3]; Monkey 3, time 120 min", "value": 82, "unit": "mmHg"}, {"measurement": "Blood Pressure (BP)", "setting": "[3]; Monkey 3, time 180 min", "value": 72, "unit": "mmHg"}, {"measurement": "Blood Pressure (BP)", "setting": "[3]; Monkey 3, time 360 min", "value": 84, "unit": "mmHg"}]}
